Experimental findings from the supplement of paper PMC3974653 are described below.

Molecules are shown by their SMILES. Structures can show the parent of a compound that is named as a salt. Where only a bound is given, the exact number is not on record here.

The test concerns MTT (mouse pheochromocytoma). Briefly: IC50 of cell viability (ATP content). Particulars: (24 or 48 h). The essentials: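 Each well of a white 1536-well plate received 5 µl of MTT mouse pheochromocytoma cells at 200,000 cells/ml in DMEM containing 5% FBS and 1% horse serum. After overnight culture at 37°C, 5% CO2, cells were exposed for 24 or 48 hrs to 23 nl of library compound in DMSO, pinned at 8 final concentrations from 0.5 nM to 46 µM. CellTiter-Glo luminescence was read after 15 minutes, and IC50 was obtained from a four-parameter logistic fit of signals normalised to positive-control and DMSO wells.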
For `O=C(Nc1ccccc1)OC[C@H](CN1CCCCC1)OC(=O)Nc1ccccc1` [Diperodon hydrochloride], the “IC50 of cell viability” value is above 46 µM.
Then `C[N+]1(C)CCC(=C(c2ccccc2)c2ccccc2)CC1` [Diphemanil methylsulfate], with above 46 µM; and `CN(C)CCOC(c1ccccc1)c1ccccc1` [Diphenhydramine], with above 46 µM; and `OC(CCCN1CCCCC1)(c1ccccc1)c1ccccc1` [Diphenidol], with above 46 µM.
Take `CCOC(=O)C1(c2ccccc2)CCN(CCC(C#N)(c2ccccc2)c2ccccc2)CC1` [Diphenoxylate]: the “IC50 of cell viability” value is above 46 µM.
Then `O=C(Oc1ccccc1)c1cccc(C(=O)Oc2ccccc2)c1` [Diphenyl isophthalate], with above 46 µM; and `CN1CCC(OC(c2ccccc2)c2ccccc2)CC1` [Diphenylpyraline hydrochloride], with above 46 µM; and `CNC[C@H](O)c1ccc(OC(=O)C(C)(C)C)c(OC(=O)C(C)(C)C)c1` [Dipivefrin hydrochloride], with above 46 µM.
Take `Cn1c(=O)c2c(ncn2C[C@@H](O)CO)n(C)c1=O` [Diprophylline]: the “IC50 of cell viability” value is above 46 µM.
Then `[Na+].CN(C[S]([O-])(=O)=O)\C1=C(/C)N(C)N(C1=O)C2=CC=CC=C2` [Dipyrone], with above 46 µM; and `C[Si](C)(C)O[Si](C)(C)C` [Disiloxane, hexamethyl-], with above 46 µM; and `CC(C)N(CC[C@@](C(N)=O)(c1ccccc1)c1ccccn1)C(C)C` [Disopyramide], with above 46 µM.
Then `CCOC(=S)SSC(=S)OCC` [Dixanthogen], with above 46 µM; and `CC(=O)O[C@@]12CO[C@@H]1C[C@H](O)[C@]3(C)[C@@H]2[C@H](OC(=O)C4=CC=CC=C4)[C@]5(O)C[C@H](OC(=O)C(O)[C@@H](NC(=O)OC(C)(C)C)C6=CC=CC=C6)C(=C(/[C@@H](O)C3=O)C5(C)C)/C` (some centres not stated) [Docetaxel], with above 46 µM; and `CCCCCCCCCC(CC)c1ccc(S(=O)(=O)[O-])cc1.[Na+]` (configuration not stated) [Dodecylbenzenesulfonic acid, sodium salt], with above 46 µM.
On to `CN(CCOc1ccc(NS(C)(=O)=O)cc1)CCc1ccc(NS(C)(=O)=O)cc1` [Dofetilide], for which the “IC50 of cell viability” value is above 46 µM.
Then `Oc1ccc(CCNCCCCCCNCCc2ccccc2)cc1O` [Dopexamine], with above 46 µM.
Then `CO[C@H]1C[C@@H](O[C@@H]2[C@@H](C)O[C@@H](O[C@@H]3/C(C)=C/CC4C[C@@H](C[C@]5(C=C[C@@H](C)[C@H](C6CCCCC6)O5)O4)OC(=O)[C@@H]4C=C(C)[C@@H](O)[C@H]5OC/C(=C\C=C\[C@@H]3C)[C@]54O)C[C@H]2OC)O[C@@H](C)[C@@H]1O` [Doramectin], with above 46 µM.
Then `CCN[C@@H]1C[C@H](C)[S+](=O)([O-])c2sc([S+](N)(=O)[O-])cc21` [Dorzolamide hydrochloride], with above 46 µM; and `CN(C)CC/C=C1\c2ccccc2CSc2ccccc21` [Dosulepin hydrochloride], with above 46 µM.
On to `COc1cc2nc(N3CCN(C(=O)[C@H]4COc5ccccc5O4)CC3)nc(N)c2cc1OC.C[S+](=O)([O-])O` [Doxazosin mesylate], for which the “IC50 of cell viability” value is above 46 µM.
Then `CN(C)CC/C=C1\c2ccccc2COc2ccccc21` [Doxepin hydrochloride], with above 46 µM; and `C[C@H]1O[C@H]([C@H](O)[C@@H]1O)N2\C=C(F)/C(=O)NC2=O` [Doxifluridine], with above 46 µM; and `Cn1c(=O)c2c(ncn2CC2OCCO2)n(C)c1=O` [Doxofylline], with above 46 µM.
Then `C[C@H]1[C@H]\2[C@H](O)[C@H]3[C@H](N(C)C)\C(=C(\C(N)=O)C(=O)[C@]3(O)\C(=C2C(=O)C4=C1C=CC=C4O)O)O` [Doxycycline hydrochloride], with above 46 µM.
Then `CN(C)CCO[C@](C)(c1ccccc1)c1ccccn1.O=C(O)CCC(=O)O` [Doxylamine succinate], with above 46 µM.
Turning to `Cc1ccc(O)c(-n2nc3ccccc3n2)c1` [Drometrizole], the “IC50 of cell viability” value was above 46 µM.
In the case of `CCCCc1oc2ccc(N[S+](C)(=O)[O-])cc2c1C(=O)c1ccc(OCCCN(CCCC)CCCC)cc1` [Dronedarone], the “IC50 of cell viability” value was above 46 µM.
With `FC1=CC=C(C=C1)C(=O)CCCN2CC\C(=C/C2)N3C(=O)NC4=C3C=CC=C4` [Droperidol], the “IC50 of cell viability” value was above 46 µM.
For the compound `NC(C(=O)O)C(O)c1ccc(O)c(O)c1` (configuration not stated) [Droxidopa], the “IC50 of cell viability” value was above 46 µM.
Then `C[C@]12C=CC(=O)N[C@@H]1CC[C@@H]1C2CC[C@]2(C)C(C(=O)Nc3cc(C(F)(F)F)ccc3C(F)(F)F)CC[C@@H]12` (some centres not stated) [Dutasteride], with above 46 µM.
Then `CCCCOc1ccc(C(=O)CCN2CCCCC2)cc1` [Dyclonine hydrochloride], with above 46 µM; and `CC(=O)[C@@H]1CC[C@@H]2[C@@H]3\C=C/C4=C/C(=O)CC[C@@]4(C)[C@H]3CC[C@@]12C` [Dydrogesterone], with above 46 µM; and `CC(C)c1cc2c(cc1[S+](=O)([O-])O)[C@@]1(C)CCC[C@@](C)(C(=O)O)[C@@H]1CC2` [ECABET SODIUM], with above 46 µM.
Then `CN1CCc2cc(Cl)c(O)cc2[C@H]2c3ccccc3CC[C@@H]21` [ECOPIPAMUM], with above 46 µM; and `O=C(O)CN(CCN(CC(=O)O)CC(=O)O)CC(=O)O` [EDETATE CALCIUM DISODIUM], with above 46 µM.
In the case of `CC(O)CN(CCN(CC(C)O)CC(C)O)CC(C)O` (configuration not stated) [EDETOLUM], the “IC50 of cell viability” value was above 46 µM.
Then `CCC1(CC2=C(O1)C=CC=C2)\C3=N\CCN3` (configuration not stated) [EFAROXAN], with above 46 µM; and `O=C1Nc2ccc(Cl)cc2C(C#CC2CC2)(C(F)(F)F)O1` (configuration not stated) [EFAVIRENZ], with above 46 µM; and `CCc1cc([S+](=O)([O-])[O][Na])c2cc(C(C)C)cccc1-2` [EGUALEN SODIUM], with above 46 µM.
Then `CC/C=C\C/C=C\C/C=C\C/C=C\C/C=C\CCCC(=O)O` [EICOSAPENTAENOIC ACID], with above 46 µM.
Then `CN1CCC[C@@H]1Cc1c[nH]c2ccc(CC[S+](=O)([O-])c3ccccc3)cc12` [ELETRIPTAN HYDROBROMIDE], with above 46 µM.
For `O=c1oc2c(O)c(O)cc3c(=O)oc4c(O)c(O)cc1c4c23` [ELLAGIC ACID], the “IC50 of cell viability” value was above 46 µM.
As for `c1cc2c(c(N3CCNCC3)c1)OCCO2` [ELTOPRAZINUM], the “IC50 of cell viability” value was above 46 µM.
In the case of `CCOCCn1c(N2CCCN(C)CC2)nc2ccccc21` [EMEDASTINE DIFUMARATE], the “IC50 of cell viability” value is above 46 µM.
Then `CCOC(=O)c1ccc(OCCN2C[C@H](O)[C@@H](O)[C@H](O)[C@H]2CO)cc1` [EMIGLITATE], with above 46 µM.
Then `Nc1nc(=O)n([C@@H]2CS[C@H](CO)O2)cc1F` [EMTRICITABINE], with above 46 µM; and `Cl\C1=C(/Cl)C2(Cl)C3C4CC(C5OC45)C3C1(Cl)C2(Cl)Cl` (configuration not stated) [ENDRIN], with above 46 µM.
Take `FC(F)OC(F)(F)C(F)Cl` (configuration not stated) [ENFLURANE]: the “IC50 of cell viability” value was above 46 µM.
Then `CCCCCCCCCCCCCCCCCCCCCC(=O)Nc1ccn([C@@H]2O[C@H](CO)[C@@H](O)[C@@H]2O)c(=O)n1` [ENOCITABINE], with above 46 µM.
Then `CC1(C)[C@@H](O)CC[C@@]2(C)[C@H]1CC[C@]3(C)[C@@H]2C(=O)\C=C/4[C@@H]5C[C@](C)(CC[C@]5(C)CC[C@@]34C)C(O)=O` [ENOXOLONE], with above 46 µM; and `CCN1CCN(CC1)C2=CC3=C(C=C2F)C(=O)C(=C/N3C4CC4)\C(O)=O` [ENROFLOXACIN], with above 46 µM.
For the compound `C=C1C(n2cnc3c(O)nc(N)nc32)C[C@H](O)[C@H]1CO` (some centres not stated) [ENTECAVIR], the “IC50 of cell viability” value is above 46 µM.
For the compound `Cc1ccc(/C=C2/C(=O)C3(C)CCC2C3(C)C)cc1` (configuration not stated) [ENZACAMENE], the “IC50 of cell viability” value was above 46 µM.
In the case of `O=C([O-])c1ccccc1-c1c2cc(Br)c(=O)c(Br)c-2oc2c(Br)c([O-])c(Br)cc12` [EOSINE YELLOWISH], the “IC50 of cell viability” value is above 46 µM.
For `CCc1ccc(C(=O)C(C)CN2CCCCC2)cc1` (configuration not stated) [EPERISONE HYDROCHLORIDE], the “IC50 of cell viability” value is above 46 µM.
Then `CNC(C)[C@@H](O)c1ccccc1.Cl` (stereo partly drawn) [EPHEDRINE (1R,2S) HYDROCHLORIDE], with above 46 µM.
In the case of `Oc1cc(O)c2c(c1)OC(c1ccc(O)c(O)c1)C(O)C2` (configuration not stated) [EPICATECHIN], the “IC50 of cell viability” value is above 46 µM.
Then `CC(C)CCC[C@@H](C)[C@H]1CC[C@H]2[C@@H]3CC[C@@H]4C[C@H](O)CC[C@]4(C)[C@H]3CC[C@]12C` [EPIDIHYDROCHOLESTERIN], with above 46 µM; and `NC1=NCC2c3ccccc3Cc3ccccc3N12` (configuration not stated) [EPINASTINE HYDROCHLORIDE], with above 46 µM; and `CNC[C@H](O)c1ccc(O)c(O)c1` [EPINEPHRINE], with above 46 µM.
Then `CCCCC[C@H](O)/C=C/[C@@H]1[C@H]2C/C(=C/CCCC(=O)[O-])O[C@H]2C[C@H]1O` [EPOPROSTENOL SODIUM], with above 46 µM.
